Measured values as given in publication PMC10600239, “Selective MCL-1 inhibitor ABBV-467 is efficacious in tumor models but is associated with cardiac troponin increases in patients” (Communications Medicine, 2023).

System: OPM-2 xenografts
Assay: OPM-2 xenograft efficacy (tumor volume, body weight)
Type: in vivo, mouse
Details: 6.25 mg/kg IV once weekly for 3 weeks
Experimental: All animal studies were conducted in accordance with the guidelines approved by the Institutional Animal Care and Use Committees of AbbVie. The research protocol was approved by In Vivo Pharmacology at AbbVie prior to study initiation but was not publicly registered or disclosed. Female C.B-17 SCID-beige mice (AMO-1, OPM-2, NCI-H929, and OCI-AML2 xenografts) and female NSG mice (MV4-11-Red.Fluc systemic) were purchased from Charles River Laboratories (Wilmington, MA). Animals were housed in a light cycle-controlled room with HEPA filtration at 22 °C. Animals had nesting and climbing cage topper as the primary environmental enrichment. Animals were inoculated subcutaneously in the right flank with 5 × 10^6 (AMO-1, OPM-2, NCI-H929, and OCI-AML2) or intravenous (IV) with 5 × 10^6 (MV4-11-Red.Fluc). The inoculation volume (0.2 mL) comprised a 50:50 mixture of cells in growth media and Matrigel (BD Biosciences) for subcutaneous injections and 100% phosphate-buffered saline for IV administration. All cell lines used in this publication were authenticated using IDEXX for STR profiling as well as their IMPACT and human IMPACT panels for pathogen screening. Electronic calipers were used to measure the length and width of each tumor 2 to 3 times per week. Tumor volume was estimated by applying the following equation: volume = length × width^2/2. All groups remained blinded during measurements and dosing; only veterinary staff were aware of group identity. When tumors reached approximately 200 mm^3, mice were randomized by match and distributed into treatment and control groups. All xenograft trials were conducted using 5 to 10 mice per group, and all mice were ear tagged and monitored individually throughout the studies. Any animal with a tumor above 2000 mm^3 or 15% loss in body weight was euthanized and removed from the study. Tumor burden in the systemic MV4-11-Red.Fluc experiment was measured using an IVIS® spectrum from PerkinElmer by taking the total photon flux of the entire dorsal side of an individual mouse. Ten minutes prior to imaging, animals received intraperitoneally 0.2 mL of a 15-mg/mL solution of D-Luciferin (PerkinElmer, Catalog #122799) formulated in 100% phosphate-buffered saline. Animals were anesthetized using 3.5% isoflurane and maintained using 2%. Six days after inoculation, animals were imaged and randomized into vehicle and treatment groups at a total flux of ~1 × 10^8. A background control mouse that was tumor naive but received D-Luciferin was placed in the upper left corner of each image. The total flux from this animal was subtracted from the total flux of each animal present in the image.
For in vivo studies, maximal tumor growth inhibition (TGI) was calculated as the greatest treatment response using the following equation: Maximal TGI = (1 − mean tumor volume of the treated group/mean tumor volume of the vehicle control group) × 100. The tumor growth delay (TGD) percentage was determined as the percentage increase of the median time period for the treatment group to reach an arbitrary tumor volume of 1000 mm^3 relative to the vehicle control group. […] A power analysis was conducted using historical data to determine the number of animals required to yield significance of 0.05 at a 30% difference. There were no animals excluded. Data from experiments in vivo were analyzed using the student’s t-test for TGI values and the Mann–Whitney U test for TGD using Excel and GraphPad Prism. Fisher’s exact test was used to probe significance of differences in response frequency.

## Cc1c(Cl)c2c(Cl)c(C)c1-c1c(-c3ccc(F)cc3)sc3ncnc(c13)O[C@@H](C(=O)O)Cc1cc(ccc1OCc1ccnc(-c3ccc(OC[C@H]4COCCO4)cc3)n1)OC[C@@H](CN1CCN(C)CC1)O2 [ABBV-467]
  maximal TGD: 82%
